The record followed here is ChEMBL document CHEMBL4673196, “Synthesis and sigma receptor affinity of spiro[[2]benzopyran-1,1-cyclohexanes] with an exocyclic amino moiety in the 3-position” (RSC Med Chem, 2021).

Activity calls are given as the source filed them. The calls are words filed in the database; no cut-off is given here.

Assay [1] deals with T1, Delta-type opioid receptor (Homo sapiens, UniProt P41143). Description: Binding affinity to DOR (unknown origin) at <= 1 uM. Particulars: dose microM <=1.
T1 sequence (P41143 whole entry): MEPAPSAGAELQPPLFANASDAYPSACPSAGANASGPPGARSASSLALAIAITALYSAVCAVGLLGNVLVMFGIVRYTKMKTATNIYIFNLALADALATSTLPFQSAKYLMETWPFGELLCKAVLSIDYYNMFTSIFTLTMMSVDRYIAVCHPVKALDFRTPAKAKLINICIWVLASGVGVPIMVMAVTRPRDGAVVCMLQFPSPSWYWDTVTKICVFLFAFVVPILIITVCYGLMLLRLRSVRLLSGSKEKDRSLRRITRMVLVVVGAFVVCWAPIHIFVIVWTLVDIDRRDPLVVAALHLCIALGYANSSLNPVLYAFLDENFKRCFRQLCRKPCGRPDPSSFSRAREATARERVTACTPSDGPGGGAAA
Assay [2] has as its target T2, Kappa-type opioid receptor (Homo sapiens, UniProt P41145). In words: Binding affinity to KOR (unknown origin) at <= 1 uM. Particulars: dose microM <=1.
Assay [3] deals with T3, Mu-type opioid receptor (Homo sapiens, UniProt P35372). In words: Binding affinity to MOR (unknown origin) at <= 1 uM. As to conditions: dose microM <=1.
T3 sequence (P35372 whole entry): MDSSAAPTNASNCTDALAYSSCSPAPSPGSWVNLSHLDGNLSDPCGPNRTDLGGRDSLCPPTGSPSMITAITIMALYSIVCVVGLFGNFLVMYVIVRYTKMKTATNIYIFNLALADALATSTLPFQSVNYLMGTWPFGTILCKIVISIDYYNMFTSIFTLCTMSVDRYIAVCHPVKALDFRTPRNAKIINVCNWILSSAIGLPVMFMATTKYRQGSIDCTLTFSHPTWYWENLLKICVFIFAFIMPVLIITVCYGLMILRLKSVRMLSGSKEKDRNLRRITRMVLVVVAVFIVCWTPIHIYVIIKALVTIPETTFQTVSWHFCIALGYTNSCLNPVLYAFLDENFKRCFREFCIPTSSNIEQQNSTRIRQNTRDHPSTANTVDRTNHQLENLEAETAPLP
Assay [4] deals with T4, Sigma intracellular receptor 2 (Rattus norvegicus) (UniProt Q5U3Y7).
T4 sequence (whole entry): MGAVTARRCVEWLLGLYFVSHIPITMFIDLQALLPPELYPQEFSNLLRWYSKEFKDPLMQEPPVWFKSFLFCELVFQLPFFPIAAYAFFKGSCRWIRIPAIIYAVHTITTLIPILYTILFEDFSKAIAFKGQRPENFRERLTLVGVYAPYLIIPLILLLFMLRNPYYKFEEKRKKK
In words: Displacement of [3H]-DTG from Sprague-Dawley rat liver sigma 2 receptor at 1 uM incubated for 120 mins by liquid scintillation counting method relative to control. The class given is tissue-based.

Assay [5] has as its target Sigma non-opioid intracellular receptor 1 (Cavia porcellus, UniProt Q60492). In words: Displacement of [3H]-pentazocine from guinea pig brain sigma 1 receptor incubated for 120 mins by liquid scintillation counting method. Type of assay: tissue-based. (In general: Loss of bound radioactivity is the signal in a displacement assay; it reports binding, not function.)
Assay [6] has as its target T5, Sigma intracellular receptor 2 (Rattus norvegicus, UniProt Q5U3Y7).
T5 sequence (Q5U3Y7 whole entry): T4 sequence (whole entry)
Description: Displacement of [3H]-DTG from Sprague-Dawley rat liver sigma 2 receptor incubated for 120 mins by liquid scintillation counting method. Type of assay: tissue-based.

Assay [7] deals with T1, Delta-type opioid receptor. Description: Binding affinity to DOR (unknown origin).
Assay [8] has as its target T2, Kappa-type opioid receptor. Description: Binding affinity to KOR (unknown origin).
For assay [9], the target named is T3, Mu-type opioid receptor. Description: Binding affinity to MOR (unknown origin).

Sigma non-opioid intracellular receptor 1, sequence (Q60492 whole entry): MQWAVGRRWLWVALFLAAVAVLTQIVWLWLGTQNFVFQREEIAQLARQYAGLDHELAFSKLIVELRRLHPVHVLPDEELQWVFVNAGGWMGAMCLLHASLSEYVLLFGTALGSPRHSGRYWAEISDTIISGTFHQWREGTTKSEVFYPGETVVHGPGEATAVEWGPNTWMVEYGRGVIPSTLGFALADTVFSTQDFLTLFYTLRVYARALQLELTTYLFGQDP
T2 sequence (P41145 whole entry): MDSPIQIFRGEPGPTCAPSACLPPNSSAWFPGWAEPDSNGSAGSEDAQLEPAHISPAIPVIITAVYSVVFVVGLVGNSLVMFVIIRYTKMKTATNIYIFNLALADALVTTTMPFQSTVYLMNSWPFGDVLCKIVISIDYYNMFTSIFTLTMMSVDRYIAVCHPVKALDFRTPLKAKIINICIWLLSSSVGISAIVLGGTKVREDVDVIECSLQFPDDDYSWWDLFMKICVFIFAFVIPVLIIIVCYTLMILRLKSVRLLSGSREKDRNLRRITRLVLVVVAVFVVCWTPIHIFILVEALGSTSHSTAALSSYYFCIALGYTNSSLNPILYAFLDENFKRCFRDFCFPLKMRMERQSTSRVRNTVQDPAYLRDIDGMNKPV

By inhibition is commonly meant the drop in the measured response relative to a control, in per cent. As a reminder, the Ki is a dissociation constant, usually derived from enzyme kinetics or from competition with a known ligand. Consider `CN(CC1CCCCC1)[C@H]1CCC[C@]2(C1)OCCc1ccccc12` (relative stereo), for which the result (in [1]; in assay [2]; at Mu-type opioid receptor [3]) was inactive. In addition, the inhibition in assay [4] worked out at 34%. In assay [5], this molecule registered a Ki of 15 nM.

For the molecule `CN(Cc1ccccc1)[C@H]1CCC[C@]2(C1)OCCc1ccccc12` (relative stereo), the inhibition in assay [4] amounted to 24%. The molecule also had a Ki in assay [5] of 278 nM.

`c1ccc(CN[C@H]2CCC[C@]3(C2)OCCc2ccccc23)cc1` (relative stereo): the Ki in assay [5] was 95 nM; in [6] it was 340 nM.

As for `c1ccc2c(c1)CCO[C@@]21CCC[C@H](NCC2CCCCC2)C1` (relative stereo), the Ki stood at 150 nM in assay [7]; 407 nM in [8]; 696 nM at Mu-type opioid receptor [9]; 5.4 nM in assay [5]; 60 nM in [6].
